From patent US20070213394A1 (priority 2004, published 2007) come the findings set out here.

In the first test the target is T1, human kappa opioid receptor (Homo sapiens, UniProt P41145).
T1 construct: expressed in transfected cells; host or cells: Chinese hamster ovary cells (CHO-hKOR), membranes
T1 sequence (P41145 whole entry): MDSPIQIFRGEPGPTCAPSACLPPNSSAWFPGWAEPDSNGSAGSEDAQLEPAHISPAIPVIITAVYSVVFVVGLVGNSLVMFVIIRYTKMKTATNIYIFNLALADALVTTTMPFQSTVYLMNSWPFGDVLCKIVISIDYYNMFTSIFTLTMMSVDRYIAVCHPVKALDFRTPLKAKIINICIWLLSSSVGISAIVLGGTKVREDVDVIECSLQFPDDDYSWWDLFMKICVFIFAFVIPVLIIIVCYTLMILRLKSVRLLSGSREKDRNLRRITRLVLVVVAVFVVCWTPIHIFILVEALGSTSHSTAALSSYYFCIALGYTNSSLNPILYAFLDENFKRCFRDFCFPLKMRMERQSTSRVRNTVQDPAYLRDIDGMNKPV
Description: biochemical. The format is binding.
Conditions: not given
In general, Ki refers to the dissociation constant of the complex between target and ligand, obtained from inhibition or displacement. As for `CCC(=O)OC1CC(C(=O)OC)C2(C)CCC3C(=O)OC(c4ccoc4)CC3(C)C2C1=O` (stereo not drawn) [Compound 203b, 2-epi-salvinorin B propionate], the Ki came out at 0.641 ± 0.122 µM.

The compound `CCC(=O)N(C)C1CC(C(=O)OC)C2(C)CCC3C(=O)OC(c4ccoc4)CC3(C)C2C1=O` (stereo not shown) [Compound 215a, 2-(N-methylpropionamide)-salvinorin] returned a Ki of 0.0016 ± 0.0001 µM. In turn, `COC(=O)[C@@H]1C[C@H](OC(=O)[C@H](C)N)C(=O)C2[C@@]1(C)CC[C@H]1C(=O)O[C@H](c3ccoc3)C[C@]21C` (stereo partly shown) [Compound 25] gave a Ki above 10 µM. On to `CC(=O)OC1CC(C(=O)OCc2ccccc2)C2(C)CCC3C(=O)OC(c4ccoc4)CC3(C)C2C1=O` (stereo not shown) [Compound 37], for which the Ki is above 10 µM.

`CCCOC(=O)C1CC(OC(C)=O)C(=O)C2C1(C)CCC1C(=O)OC(c3ccoc3)CC12C` (stereo not shown) [Compound 54] came in with a Ki above 10 µM.

Regarding `CC(=O)OC1CC(C(=O)N2CCCC2C(=O)OCc2ccccc2)C2(C)CCC3C(=O)OC(c4ccoc4)CC3(C)C2C1=O` (stereo not shown) [Compound 104], the Ki is above 10 µM. In turn, `CN[C@@H]1C[C@@H](C(=O)OC)[C@]2(C)CC[C@H]3C(=O)O[C@H](c4ccoc4)C[C@]3(C)C2C1=O` (stereo partly shown) [Compound 11, 2-(N-methylamino)-salvinorin] yielded a Ki above 10 µM. Regarding `CCCCCOC(=O)C1CC(OC(C)=O)C(=O)C2C1(C)CCC1C(=O)OC(c3ccoc3)CC12C` (stereo not shown) [Compound 40], the inhibition constant (Ki) was above 10 µM.

The compound `COC(=O)C1CC(OC)C(=O)C2C1(C)CCC1C(=O)OC(c3ccoc3)CC12C` (stereo not drawn) [Compound 205b, 2-epi-(O-methyl)-salvinorin B] registered an inhibition constant Ki above 10 µM. On the same count and under the same terms, for `CCCCOC(=O)C1CC(OC(C)=O)C(=O)C2C1(C)CCC1C(=O)OC(c3ccoc3)CC12C` (stereo not shown) [Compound 35] the value was above 10 µM. Consider `C#CCCOC(=O)C1CC(OC(C)=O)C(=O)C2C1(C)CCC1C(=O)OC(c3ccoc3)CC12C` (stereo not shown) [Compound 53], for which the Ki was above 10 µM. On to `CC(=O)O[C@H]1C[C@@H](CO)[C@]2(C)CCC3C(=O)O[C@H](c4ccoc4)C[C@]3(C)[C@H]2C1=O` (stereo partly shown) [Compound 222, O-demethyl-18-deoxysalvinorin A], for which the Ki is above 10 µM. `CC(=O)OC1CC(C(=O)N(C)C)C2(C)CCC3C(=O)OC(c4ccoc4)CC3(C)C2C1=O` (stereo not shown) [Compound 221, C(4)-N,N-dimethylamide salvinorin A] displayed an inhibitory constant (Ki) above 10 µM. `CCOC1CC(C(=O)OC)C2(C)CCC3C(=O)OC(c4ccoc4)CC3(C)C2C1=O` (stereo not drawn) [Compound 206b, 2-epi-(O-ethyl)-salvinorin B] displayed an inhibition constant Ki above 10 µM. `CCCC(=O)OC1CC(C(=O)OC)C2(C)CCC3C(=O)OC(c4ccoc4)CC3(C)C2C1=O` (stereo not drawn) [Compound 204b, 2-epi-salvinorin B butyrate] had an inhibition constant (Ki) of 0.665 ± 0.1 µM. Turning to `CCCCCCCCOC(=O)C1CC(OC(C)=O)C(=O)C2C1(C)CCC1C(=O)OC(c3ccoc3)CC12C` (stereo not shown) [Compound 42], the inhibition constant (Ki) is above 10 µM. `COC(=O)[C@@H]1C[C@H](OC(=O)CN(C)C)C(=O)C2[C@@]1(C)CC[C@H]1C(=O)O[C@H](c3ccoc3)C[C@]21C` (stereo partly shown) [Compound 27] returned an inhibition constant Ki above 10 µM. `C=CCOC(=O)C1CC(OC(C)=O)C(=O)C2C1(C)CCC1C(=O)OC(c3ccoc3)CC12C` (stereo not shown) [Compound 56] had an inhibitory constant (Ki) above 10 µM. In the case of `CC(=O)OC1CC(C(=O)NC(Cc2cnc[nH]2)C(=O)OCc2ccccc2)C2(C)CCC3C(=O)OC(c4ccoc4)CC3(C)C2C1=O` (stereo not shown) [Compound 105], the Ki is above 10 µM. Compound `COC(=O)[C@@H]1C[C@H](OC(=O)CN(C)C)C(=O)C2[C@@]1(C)CC[C@H]1C(=O)O[C@H](c3ccoc3)C[C@]21C` (stereo partly shown) [Compound 12, 2-(2′-(N,N-dimethylamino)acetate) salvinorin B] gave a Ki above 10 µM. `CC(=O)OC1CC(C(=O)NC(C)C(=O)OCc2ccccc2)C2(C)CCC3C(=O)OC(c4ccoc4)CC3(C)C2C1=O` (stereo not shown) [Compound 99] displayed a Ki above 10 µM.

The same test, now with this note: read-out: Ki.
In the case of `CC(=O)OC1CC(CN(C)C)C2(C)CCC3C(=O)OC(c4ccoc4)CC3(C)C2C1=O` (stereo not drawn) [C8-epi-compound 226, 8-epi-4-(N,N-dimethylamino)methyl salvinorin A], the Ki was above 10 µM. With `CNC(=O)[C@@H]1C[C@H](OC(C)=O)C(=O)[C@H]2[C@@]1(C)CC[C@H]1C(=O)O[C@H](c3ccoc3)C[C@]21C` [Compound 219, C(4)-N-methylamide salvinorin A], the inhibition constant Ki is above 1 µM. As to `CNCC1CC(OC(C)=O)C(=O)C2C1(C)CCC1C(=O)OC(c3ccoc3)CC12C` (stereo not drawn) [C8-epi-compound 224, 8-epi-4-(N-methylamino)methyl salvinorin A], the Ki is above 10 µM. In the case of “8-epi-O-demethyl-18-deoxysalvinorin A [C8-epi-compound 222]”, the Ki amounted to 1 ± 0.269 µM. As for `CNC(=O)C1CC(OC(C)=O)C(=O)C2C1(C)CCC1C(=O)OC(c3ccoc3)CC12C` (stereo not drawn) [C8-epi-compound 219, 8-epi-C(4)-N-methylamide salvinorin A], the Ki is 1.39 ± 0.218 µM.

Take `CCNCC1CC(OC(C)=O)C(=O)C2C1(C)CCC1C(=O)OC(c3ccoc3)CC12C` (stereo not drawn) [C8-epi-compound 225, 8-epi-4-(N-ethylamino)methyl salvinorin A]: the inhibitory constant (Ki) was above 10 µM.

The target in the next test is T1, human kappa opioid receptor. Description: biochemical. Conditions: 1 h, read-out: Efficacy.
Regarding `CCN(C(C)=O)[C@H]1C[C@@H](C(=O)OC)[C@]2(C)CC[C@H]3C(=O)O[C@H](c4ccoc4)C[C@]3(C)[C@H]2C1=O` [Compound 216a, 2-(N-ethylacetamide)-salvinorin], the Emax is 104%. On the same count and under the same terms, the result for `COC(=O)[C@@H]1C[C@@H](N(C)C(C)=O)C(=O)C2[C@@]1(C)CC[C@H]1C(=O)O[C@H](c3ccoc3)C[C@]21C` (stereo partly drawn) [Compound 80, 2-epi-(N-methylacetamide)-salvinorin] reads 106%; that for `CCC(=O)N[C@@H]1C[C@@H](C(=O)OC)[C@]2(C)CC[C@H]3C(=O)O[C@H](c4ccoc4)C[C@]3(C)[C@H]2C1=O` [Compound 213b, 2-epi-(propionamide)-salvinorin], 102%; that for `CCC(=O)N(CC)[C@@H]1C[C@@H](C(=O)OC)[C@]2(C)CC[C@H]3C(=O)O[C@H](c4ccoc4)C[C@]3(C)[C@H]2C1=O` [Compound 217b, 2-epi-(N-ethylpropionamide)-salvinorin], 96%. `CCN(C(C)=O)[C@@H]1C[C@@H](C(=O)OC)[C@]2(C)CC[C@H]3C(=O)O[C@H](c4ccoc4)C[C@]3(C)[C@H]2C1=O` [Compound 216b, 2-epi-(N-ethylacetamide)-salvinorin]: the Emax is 95%. The same measure, in the same setting: for `CCC(=O)N(CC)[C@H]1C[C@@H](C(=O)OC)[C@]2(C)CC[C@H]3C(=O)O[C@H](c4ccoc4)C[C@]3(C)[C@H]2C1=O` [Compound 217a, 2-(N-ethylpropionamide)-salvinorin] the value was 100%; for `COC(=O)[C@@H]1C[C@H](O)C(=O)C2[C@@]1(C)CC[C@H]1C(=O)O[C@H](c3ccoc3)C[C@]21C` (stereo partly shown) [Compound 1, salvinorin B], 98%. Turning to `COC(=O)[C@@H]1C[C@H](O)C(=O)C2[C@@]3(C)C[C@@H](c4ccoc4)OC(=O)[C@H]3CC[C@]21C` (stereo partly shown) [Compound 5, Episalvinorin B], the Emax was 102%.

Turning to `CCC(=O)N[C@H]1C[C@@H](C(=O)OC)[C@]2(C)CC[C@H]3C(=O)O[C@H](c4ccoc4)C[C@]3(C)[C@H]2C1=O` [Compound 213a, 2-(propionamide)-salvinorin], the Emax was found to be 109%. Same read-out and setting: for `CCO[C@H]1C[C@@H](C(=O)OC)[C@]2(C)CC[C@H]3C(=O)O[C@H](c4ccoc4)C[C@]3(C)C2C1=O` (stereo partly shown) [Compound 15, 2-ethoxy-salvinorin B] the value was 103%.
